Experimental data: patent publication US20240116922A1, “IMIDAZO[1,2-A]PYRIDINE DERIVATIVES AS IRAK4 INHIBITORS AND THEIR USE IN THE TREATMENT OF DISEASE” (BIOGEN MA INC., priority 2020, published 2024)
In brackets after ≈: the same amount, converted by molar mass. Structures can show the parent of a compound that is named as a salt.

Assays:
MDR1 = MDR1 (Homo sapiens (Human), UniProt P08183); assay: in vitro; conditions: MDCK-MDR1
IRAK4 = IRAK4 (Homo sapiens (Human), UniProt Q9NWZ3); assay: IRAK4 MSD biochemical assay (2-hour 1 mM ATP); conditions: 0.1 nM IRAK4, 1 mM ATP, 2 hour at room temperature
Sequence of IRAK4 (Q9NWZ3 whole entry): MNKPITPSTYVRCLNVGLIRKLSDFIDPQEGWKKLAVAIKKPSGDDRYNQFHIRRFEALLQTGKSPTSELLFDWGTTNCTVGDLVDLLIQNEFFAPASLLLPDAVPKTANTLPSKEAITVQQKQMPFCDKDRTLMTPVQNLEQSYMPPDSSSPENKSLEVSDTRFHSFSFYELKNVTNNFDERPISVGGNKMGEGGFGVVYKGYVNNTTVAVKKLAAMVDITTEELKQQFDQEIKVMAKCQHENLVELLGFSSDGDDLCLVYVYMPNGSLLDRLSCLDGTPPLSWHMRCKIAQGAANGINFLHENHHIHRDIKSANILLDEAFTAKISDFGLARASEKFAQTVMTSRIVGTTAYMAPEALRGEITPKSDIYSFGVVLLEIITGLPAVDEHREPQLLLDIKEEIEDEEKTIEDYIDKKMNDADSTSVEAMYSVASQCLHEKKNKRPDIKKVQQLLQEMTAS

[1] = Kinetic solubility assay (CLND), pH 6.8; assay type: physicochemical; conditions: potassium phosphate buffer pH 6.8, 2% DMSO, 24 hours at ambient temperature; for solubility kinetic at 24 h: aqueous buffer, kinetic from dmso stock

Sequence of MDR1 (P08183 whole entry): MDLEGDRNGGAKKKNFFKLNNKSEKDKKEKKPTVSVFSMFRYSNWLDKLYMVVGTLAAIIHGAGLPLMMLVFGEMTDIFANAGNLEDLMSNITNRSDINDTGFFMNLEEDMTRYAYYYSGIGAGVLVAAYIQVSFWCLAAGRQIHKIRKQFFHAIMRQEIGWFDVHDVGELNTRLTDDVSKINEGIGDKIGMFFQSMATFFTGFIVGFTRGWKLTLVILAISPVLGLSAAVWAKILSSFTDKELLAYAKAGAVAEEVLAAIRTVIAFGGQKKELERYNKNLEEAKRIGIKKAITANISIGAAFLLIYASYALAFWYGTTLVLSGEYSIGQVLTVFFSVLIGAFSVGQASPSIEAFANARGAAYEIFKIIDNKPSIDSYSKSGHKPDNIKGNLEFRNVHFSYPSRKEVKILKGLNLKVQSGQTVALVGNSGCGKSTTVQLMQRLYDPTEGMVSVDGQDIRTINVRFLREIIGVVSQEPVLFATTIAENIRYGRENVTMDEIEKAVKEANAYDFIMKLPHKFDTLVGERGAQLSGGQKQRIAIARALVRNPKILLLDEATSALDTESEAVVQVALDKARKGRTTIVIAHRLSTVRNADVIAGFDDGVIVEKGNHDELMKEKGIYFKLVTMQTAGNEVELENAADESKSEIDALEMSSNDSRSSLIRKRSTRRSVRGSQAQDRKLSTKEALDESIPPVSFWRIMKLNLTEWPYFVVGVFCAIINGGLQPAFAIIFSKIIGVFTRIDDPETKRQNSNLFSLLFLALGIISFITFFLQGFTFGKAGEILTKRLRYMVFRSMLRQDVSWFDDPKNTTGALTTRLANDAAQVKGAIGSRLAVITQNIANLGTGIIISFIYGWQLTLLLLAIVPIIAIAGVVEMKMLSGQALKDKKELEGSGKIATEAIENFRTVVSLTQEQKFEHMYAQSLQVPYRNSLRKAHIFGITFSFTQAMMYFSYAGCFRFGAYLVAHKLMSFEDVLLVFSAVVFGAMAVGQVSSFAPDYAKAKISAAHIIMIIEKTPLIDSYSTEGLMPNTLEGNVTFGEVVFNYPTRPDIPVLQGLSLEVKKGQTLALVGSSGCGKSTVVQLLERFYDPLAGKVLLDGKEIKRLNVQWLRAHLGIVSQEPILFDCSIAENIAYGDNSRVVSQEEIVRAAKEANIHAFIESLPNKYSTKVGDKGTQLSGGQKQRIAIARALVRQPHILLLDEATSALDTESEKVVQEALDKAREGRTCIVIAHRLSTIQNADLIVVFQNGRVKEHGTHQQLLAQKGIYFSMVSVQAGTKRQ

Compound | efflux ratio at 120 min, 1 μM (MDR1) | IC50 (IRAK4) [nM] | solubility kinetic at 24 h [1] [µg/mL] | pH 6.8 Solubility (ug/mL) [1] [ug/mL]
CC[C@@H](C)Oc1nc2nc(C34COC(C)(C3)C4)cn2cc1C(=O)Nc1cccn([C@@H]2C[C@@H]2F)c1=O (mixture of isomers) [Example 41, 7-((R)-sec-butoxy)-N-(1-(cis-2-fluorocyclopropyl)-2-oxo-1,2-dihydropyridin-3-yl)-2-(1-methyl-2-oxabicyclo[2.1.1]hexan-4-yl)imidazo[1,2-a]pyrimidine-6-carboxamide] | 9.1 | 0.6 | – | –
C[C@H]1C[C@H]1n1cccc(NC(=O)c2cn3cc(C45COC(C)(C4)C5)nc3nc2OC2CCC2)c1=O [Example 189, 7-cyclobutoxy-2-(1-methyl-2-oxabicyclo[2.1.1]hexan-4-yl)-N-(1-((1R,2S)-2-methylcyclopropyl)-2-oxo-1,2-dihydropyridin-3-yl)imidazo[1,2-a]pyrimidine-6-carboxamide trifluoroacetate] | 3.4 | 34.6 | – | –
CC(C)Oc1cc2nc(C34CCC(C3)OC4)cn2cc1C(=O)Nc1cccn(C2CC2)c1=O (stereo not drawn) [Example 38, 2-(2-oxabicyclo[2.2.1]heptan-4-yl)-N-(1-cyclopropyl-2-oxo-1,2-dihydropyridin-3-yl)-7-isopropoxyimidazo[1,2-a]pyridine-6-carboxamide] | 7 | 0.3 | – | –
CC(C)Oc1nc2nc(C34COC(C)(C3)C4)cn2cc1C(=O)Nc1cccn([C@@H]2CC2(C)C)c1=O (single isomer, unassigned) [Example 78] | 2.1 | 11 | – | –
CC(C)Oc1nc2nc(C34CCC(C)(CC3)OC4)cn2cc1C(=O)Nc1cccc(C(F)F)n1 [Comparator 5A, N-(6-(difluoromethyl)pyridin-2-yl)-7-isopropoxy-2-(1-methyl-2-oxabicyclo[2.2.2]octan-4-yl)imidazo[1,2-a]pyrimidine-6-carboxamide, reference compound] | 1 | – | 1.5 (≈ 3.18 µM) | –
COCC12CC(c3cn4cc(C(=O)Nc5cccn([C@@H]6C[C@@H]6F)c5=O)c(OC(C)C)nc4n3)(CO1)C2 [Example 162, N-(1-((1R,2S)-2-fluorocyclopropyl)-2-oxo-1,2-dihydropyridin-3-yl)-7-isopropoxy-2-(1-(methoxymethyl)-2-oxabicyclo[2.1.1]hexan-4-yl)imidazo[1,2-a]pyrimidine-6-carboxamide] | 38.2 | – | – | –
Cc1cnc2c(NC(=O)c3cn4cc([C@@]56CC[C@@](C)(C5)OC6)nc4nc3OC(C)C)cnn2c1 (single isomer, unassigned) [Comparator 4B, reference compound] | 2.3 | – | 2 (≈ 4.33 µM) | –
Cc1cnc2c(NC(=O)c3cn4cc(C56CCC(C)(CC5)OC6)nc4cc3OC(C)C)cnn2c1 [Comparator 5B, 7-isopropoxy-2-(1-methyl-2-oxabicyclo[2.2.2]octan-4-yl)-N-(6-methylpyrazolo[1,5-a]pyrimidin-3-yl)imidazo[1,2-a]pyridine-6-carboxamide, reference compound] | 1.4 | – | 5.2 (≈ 11 µM) | –
CC(C)Oc1cc2nc([C@]34CC[C@](C)(C3)OC4)cn2cc1C(=O)Nc1cccc(C(F)F)n1 (single isomer, unassigned) [Comparator 3A, reference compound] | 0.7 | – | 0.8 (≈ 1.75 µM) | –
CC12CC(c3cn4cc(C(=O)Nc5cccn([C@@H]6C[C@@H]6F)c5=O)c(OC5CCC5)cc4n3)(CO1)C2 (single isomer, unassigned) [Example 172] | – | 27 | – | –
CC12CC(c3cn4cc(C(=O)Nc5cccn([C@@H]6C[C@@H]6F)c5=O)c(OC5CC5)cc4n3)(CO1)C2 (single isomer, unassigned) [Example 174] | – | 37.5 | – | –
CC[C@H](C)Oc1cc2nc(C34COC(C)(C3)C4)cn2cc1C(=O)Nc1cccn(C2CC2F)c1=O (mixture of isomers) [Example 96, 7-((S)-sec-butoxy)-N-(1-cis-(2-fluorocyclopropyl)-2-oxo-1,2-dihydropyridin-3-yl)-2-(1-methyl-2-oxabicyclo[2.1.1]hexan-4-yl)imidazo[1,2-a]pyridine-6-carboxamide] | 10.4 | – | 75.7 | –
CC(C)Oc1cc2nc(C34COC(C)(C3)C4)cn2cc1C(=O)Nc1ccnn(C2CC2)c1=O [Example 76] | 3.6 | – | 50.9 (≈ 113 µM) | –
COC[C@]12C[C@](c3cn4cc(C(=O)Nc5cccn(C6CC6F)c5=O)c(OC(C)C)nc4n3)(CO1)C2 (mixture of isomers) [Example 90, (rac)-Cis-N-(1-(2-fluorocyclopropyl)-2-oxo-1,2-dihydropyridin-3-yl)-7-isopropoxy-2-(1-(methoxymethyl)-2-oxabicyclo[2.1.1]hexan-4-yl)imidazo[1,2-a]pyrimidine-6-carboxamide] | – | – | – | 74.8
CC[C@H](C)Oc1nc2nc(C34COC(C)(C3)C4)cn2cc1C(=O)Nc1cccn([C@@H]2C[C@@H]2F)c1=O (mixture of isomers) [Example 42, 7-((S)-sec-butoxy)-N-(1-(cis-2-fluorocyclopropyl)-2-oxo-1,2-dihydropyridin-3-yl)-2-(1-methyl-2-oxabicyclo[2.1.1]hexan-4-yl)imidazo[1,2-a]pyrimidine-6-carboxamide] | 10.8 | – | 72.5 | –
CC(C)Oc1nc2nc([C@]34CC[C@](CF)(C3)OC4)cn2cc1C(=O)Nc1cccn(C2CC2)c1=O (single isomer, unassigned) [Example 47] | – | – | 9 (≈ 18.7 µM) | –
CC(C)Oc1nc2nc(C34CCC(CF)(C3)OC4)cn2cc1C(=O)Nc1cccn(C2CC2)c1=O (stereo not drawn) [Example 45, N-(1-cyclopropyl-2-oxo-1,2-dihydropyridin-3-yl)-2-(1-(fluoromethyl)-2-oxabicyclo[2.2.1]heptan-4-yl)-7-isopropoxyimidazo[1,2-a]pyrimidine-6-carboxamide] | – | – | 6.8 (≈ 14.1 µM) | –
CC(C)Oc1nc2nc(C34COC(C)(C3)C4)cn2cc1C(=O)Nc1cccn(C2C[C@]2(C)C(F)F)c1=O (stereo partly drawn) [Example 144, N-(1-((1S,2S)-2-(difluoromethyl)-2-methylcyclopropyl)-2-oxo-1,2-dihydropyridin-3-yl)-7-isopropoxy-2-(1-methyl-2-oxabicyclo[2.1.1]hexan-4-yl)imidazo[1,2-a]pyrimidine-6-carboxamide] | – | – | 34.4 (≈ 67 µM) | –

The next lines start with results.

efflux ratio at 120 min, 1 μM (MDR1) | IC50 (IRAK4) [nM] | solubility kinetic at 24 h [1] [µg/mL] | Compound | pH 6.8 Solubility (ug/mL) [1] [ug/mL]
– | 9.4 | – | CC(C)Oc1cc2nc([C@]34CC[C@](C)(C3)OC4)cn2cc1C(=O)Nc1cccn([C@@H]2C[C@@H]2F)c1=O (single isomer, unassigned) [Example 170] | –
– | 61 | – | CC(C)Oc1c(C(=O)Nc2cccn([C@@H]3C[C@@H]3F)c2=O)cn2cc(C34COC(C)(C3)C4)nc2c1F (single isomer, unassigned) [Example 92] | –
1.5 | 15.9 | – | CC(C)Oc1c(C(=O)Nc2cccn([C@@H]3C[C@H]3C)c2=O)cn2cc(C34COC(C)(C3)C4)nc2c1F [Example 147, 8-fluoro-7-isopropoxy-2-(1-methyl-2-oxabicyclo[2.1.1]hexan-4-yl)-N-(1-((1R,2R)-2-methylcyclopropyl)-2-oxo-1,2-dihydropyridin-3-yl)imidazo[1,2-a]pyridine-6-carboxamide] | –
2.9 | 15.4 | – | CC(C)Oc1cc2nc([C@@]34CC[C@@](C)(C3)OC4)cn2cc1C(=O)Nc1cccn([C@@H]2C[C@@H]2C)c1=O [Example 183, 7-isopropoxy-2-((1S,4R)-1-methyl-2-oxabicyclo[2.2.1]heptan-4-yl)-N-(1-((1R,2S)-2-methylcyclopropyl)-2-oxo-1,2-dihydropyridin-3-yl)imidazo[1,2-a]pyridine-6-carboxamide trifluoroacetate] | –
– | 1.2 | 37 (≈ 77.5 µM) | CC(C)Oc1nc2nc([C@]34CC[C@](C)(C3)OC4)cn2cc1C(=O)Nc1cccn([C@H]2C[C@@H]2C)c1=O (single isomer, unassigned) [Example 142] | –
– | 45.5 | – | CC(C)Oc1c(C(=O)Nc2cccn([C@@H]3C[C@@H]3F)c2=O)cn2cc([C@@]34CC[C@@](C)(C3)OC4)nc2c1F (single isomer, unassigned) [Example 124] | –
– | 3.1 | – | CC[C@H](C)Oc1cc2nc(C34COC(C)(C3)C4)cn2cc1C(=O)Nc1cccn([C@@H]2C[C@@H]2F)c1=O (single isomer, unassigned) [Example 160] | –
– | – | 20.3 (≈ 43.8 µM) | CC(C)Oc1nc2nc([C@]34CC[C@](C)(C3)OC4)cn2cc1C(=O)Nc1cccn(C2CC2)c1=O (single isomer, unassigned) [Example 13] | –
– | 7.5 | – | CC(C)Oc1cc2nc([C@@]34CC[C@@](C)(C3)OC4)cn2cc1C(=O)Nc1cccn([C@@H]2C[C@@H]2F)c1=O (single isomer, unassigned) [Example 168] | –
– | 0.4 | 43.2 (≈ 90.5 µM) | CC(C)Oc1nc2nc([C@]34CC[C@](C)(C3)OC4)cn2cc1C(=O)Nc1cccn([C@@H]2C[C@H]2C)c1=O (single isomer, unassigned) [Example 141] | –
– | 1.1 | – | CC(C)Oc1cc2nc(C34COC(C)(C3)C4)cn2cc1C(=O)Nc1cccn([C@H]2C[C@@H]2C)c1=O [Example 140, 7-isopropoxy-2-(1-methyl-2-oxabicyclo[2.1.1]hexan-4-yl)-N-(1-((1S,2S)-2-methylcyclopropyl)-2-oxo-1,2-dihydropyridin-3-yl)imidazo[1,2-a]pyridine-6-carboxamide] | –
– | 0.4 | 62 | CC(C)Oc1cc2nc([C@@]34CC[C@@](C)(C3)OC4)cn2cc1C(=O)Nc1cccn(C2CC2F)c1=O (mixture of isomers) [Example 99, N-(1-(2-fluorocyclopropyl)-2-oxo-1,2-dihydropyridin-3-yl)-7-isopropoxy-2-((1S,4R)-1-methyl-2-oxabicyclo[2.2.1]heptan-4-yl)imidazo[1,2-a]pyridine-6-carboxamide] | –
– | 0.5 | 39.9 (≈ 80 µM) | CC(C)Oc1c(C(=O)Nc2cccn([C@H]3C[C@H]3F)c2=O)cn2cc([C@@]34CC[C@@](C)(C3)OC4)nc2c1F (single isomer, unassigned) [Example 125] | –
